# Test results taken from EPA's ToxValDB 9.5.
# “And” between values parts separate entries of the source, which are not always exact repeats. Equal entries are not always repeated.
# System: Mus musculus
# Conditions: for NOEL / LOEL: drinking water
# [1] = developmental, duration: 54 days, oral, gavage, M/F, CD1, generation: F1, F1: Developmental: Eye: Eye Opening + F1: Developmental: Liver: Liver, Discolored + F1: Developmental: Whole Body: Fetus Or Pup/Neonate, …
# [2] = reproduction developmental, duration: 14 days, oral, gavage, F, Crl:CD-1 (ICR) BR, generation: P0, P0: Blood: Hematocrit (HCT) + P0: Blood: Hemoglobin (HGB) + P0: Blood: Lymphocyte + P0: Blood: Monocytes + P0: Blood: Neutrophils + P0: …
# [3] = reproduction developmental, duration: 14 days, oral, gavage, F, Crl:CD-1 (ICR) BR, generation: P0, P0: Liver: Hepatocellular Hypertrophy
# [4] = reproduction developmental, duration: 14 days, oral, gavage, M/F, Crl:CD-1 (ICR) BR, generation: P0, P0: Eye: Eye Opening + P0: Whole Body: Lactation Index + P0: Whole Body: Pup Mortality + P0: Whole Body: Pup Weight Relative to Litter
# [5] = reproduction developmental, duration: 54 days, oral, gavage, F, CD1, generation: P0, P0: Developmental: Uterus: Implantation + P0: Developmental: Whole Body: No. Male Pups per No. of Pups Sexed
# [6] = reproduction developmental, duration: 54 days, oral, gavage, F, CD1, generation: P0, P0: Developmental: Uterus: Implantation + P0: Developmental: Whole Body: No. Male Pups per No. of Pups Sexed + P0: Reproductive: Whole Body…
# [7] = reproduction developmental, duration: 109 days, oral, gavage, M, Crl:CD-1 (ICR) BR, generation: P0, P0: Blood: Hematocrit (HCT) + P0: Blood: Hemoglobin (HGB) + P0: Blood: Sorbitol Dehydrogenase (SDH), Blood + P0: Kidney: Blood Urea Nitrogen…
# [8] = reproduction developmental, duration: 109 days, oral, gavage, M, Crl:CD-1 (ICR) BR, generation: P0, P0: Hepatic: Liver: Alanine Aminotransferase (ALT), Blood + P0: Hepatic: Liver: Alkaline Phosphatase (ALP), Blood + P0: Hepatic: Liver: …
# [9] = reproduction developmental, duration: 109 days, oral, gavage, M, Crl:CD-1 (ICR) BR, generation: P0, P0: Liver: Hepatocellular Hypertrophy
# [10] = reproduction developmental, multiple, M, Crl:CD-1 (ICR) BR, generation: F1, F1: Reproductive: Prepuce: Preputial Separation + F1: Whole Body: Whole Body: Body Weight Change + F1: Whole Body: Whole Body: Feed …
# [11] = reproduction developmental, multiple, M, Crl:CD-1 (ICR) BR, generation: F1, F1: Whole Body: Whole Body: Body Weight Change + F1: Whole Body: Whole Body: Feed Consumption, Absolute
# [12] = reproduction developmental, oral, gavage, F, CD1, generation: P0, P0: Blood: Hematocrit (HCT) + P0: Blood: Hemoglobin (HGB) + P0: Blood: Lymphocyte + P0: Blood: Monocytes + P0: Blood: Neutrophils + P0: …
# [13] = reproduction developmental, oral, gavage, F, CD1, generation: P0, P0: Liver: Alanine Aminotransferase (ALT), Blood + P0: Liver: Alkaline Phosphatase (ALP), Blood + P0: Liver: Aspartate Aminotransferase (AST…
# [14] = reproduction developmental, oral, gavage, F, Crl:CD-1 (ICR) BR, generation: P0, P0: Hepatic: Liver: Alanine Aminotransferase (ALT), Blood + P0: Hepatic: Liver: Alkaline Phosphatase (ALP), Blood + P0: Hepatic: Liver: …
# [15] = reproduction developmental, oral, gavage, M, CD1, generation: P0, P0: Blood: Cholesterol (CHOL), Total + P0: Blood: Hematocrit (HCT) + P0: Blood: Hemoglobin (HGB) + P0: Blood: Lymphocyte + P0: Blood: …
# [16] = short-term, duration: 28 days, oral, M, BALB/c, activity cage (locomotion events, 60 min) + Morris water maze (escape time, acquisition, day 5) + Morris water maze (platform crossing, …
# [17] = short-term, duration: 28 days, oral, M, BALB/c, elevated plus maze (time in open arms) + forced swim (immobility time, last 4 min) + forced swim (immobility time, total 6 min)
# [18] = subchronic, duration: 8 weeks, oral, M, Kunming, Y-maze (number of training runs to meet 90% learning standard)
# [19] = subchronic, duration: 8 weeks, oral, M, Kunming, open field (grid entry, 3 minutes)
# [20] = subchronic, duration: 10 weeks, oral, ICR, Y-maze (number of training runs to meet 90% learning standard)
# [21] = subchronic, duration: 30 days, oral, F, Swiss Albino, rotarod (latency to fall, 25 rpm)
# [22] = subchronic, duration: 64 days, oral, M, C57BL/6, formalin test (flinches, early phase, 10 min) + formalin test (flinches, late phase, 60 min) + formalin test (flinches/10 min, 60 min) + …
smiles,measurement,setting,value
OCCC(F)(F)C(F)(F)C(F)(F)C(F)(F)C(F)(F)C(F)(F)F [2-(Perfluorohexyl)ethanol],LOAEL,[1],120 mg/kg-day
same,NOAEL,[1],25 mg/kg-day
same,NEL,"developmental, oral, gavage, M/F, CD1, generation: F1, F1: Eye: Eye Opening + F1: Liver: Liver, Discolored + F1: Prepuce or Vagina: Preputial Separation or Vaginal Patency + F1: Whole Body: Fetus…",25 mg/kg-day
same,LEL,"developmental, oral, gavage, M/F, CD1, generation: F1, F1: Eye: Eye Opening + F1: Liver: Liver, Discolored + F1: Whole Body: Fetus Or Pup/Neonate, Small + F1: Whole Body: Lactation Index + F1: …",100 mg/kg-day
same,LEL,[2],100 mg/kg-day
same,NEL,[2],25 mg/kg-day
same,NEL,"reproduction developmental, duration: 14 days, oral, gavage, F, Crl:CD-1 (ICR) BR, generation: P0, P0: Kidney: Kidney Weight, Absolute + P0: Liver: Liver Weight, Absolute + P0: Liver: Total Bilirubin (TBILI), Blood + P0: Liver: Total …",100 mg/kg-day
same,LEL,[3],5 mg/kg-day
same,NEL,[3],1 mg/kg-day
same,LEL,[4],100 mg/kg-day
same,NEL,[4],25 mg/kg-day
same,NEL,"reproduction developmental, duration: 14 days, oral, gavage, M/F, Crl:CD-1 (ICR) BR, generation: P0, P0: Whole Body: Live Pups Born + P0: Whole Body: Male Pups per Pups Sexed + P0: Whole Body: Viability Index",100 mg/kg-day
same,NEL,"reproduction developmental, duration: 42 days, multiple, F, Crl:CD-1 (ICR) BR, generation: P0, P0: Vagina: Vaginal Patency + P0: Whole Body: Body Weight Change + P0: Whole Body: Feed Consumption, Absolute",25 mg/kg-day
same,NEL,"reproduction developmental, duration: 42 days, multiple, M, Crl:CD-1 (ICR) BR, generation: P0, P0: Prepuce: Preputial Separation + P0: Whole Body: Body Weight Change + P0: Whole Body: Feed Consumption, Absolute",25 mg/kg-day
same,LOAEL,[5],120 mg/kg-day
same,NOAEL,[5],25 mg/kg-day
same,LOAEL,[6],120 mg/kg-day
same,NOAEL,[6],25 mg/kg-day
same,NOAEL,"reproduction developmental, duration: 54 days, oral, gavage, F, CD1, generation: P0, P0: Reproductive: Whole Body: Fertility Index + P0: Reproductive: Whole Body: Gestation Index + P0: Reproductive: Whole Body: Percent Mating",120 mg/kg-day
same,NOAEL,"reproduction developmental, duration: 54 days, oral, gavage, M/F, CD1, generation: F1, F1: Reproductive: Prepuce or Vagina: Preputial Separation or Vaginal Patency",120 mg/kg-day
same,LOAEL,"reproduction developmental, duration: 54 days, oral, gavage, M, CD1, generation: P0, P0: Reproductive: Whole Body: Fertility Index + P0: Reproductive: Whole Body: Percent Mating",120 mg/kg-day
same,LEL,[7],100 mg/kg-day
same,NEL,[7],25 mg/kg-day
same,NEL,"reproduction developmental, duration: 109 days, oral, gavage, M, Crl:CD-1 (ICR) BR, generation: P0, P0: Blood: Lymphocyte + P0: Blood: Monocytes + P0: Blood: Neutrophils + P0: Blood: Red Blood Cell (RBC) + P0: Blood: Reticulocytes + P0: …",100 mg/kg-day
same,LOAEL,[8],5 mg/kg-day
same,NOAEL,[8],1 mg/kg-day
same,LEL,[9],5 mg/kg-day
same,NEL,[9],1 mg/kg-day
same,NOAEL,"reproduction developmental, duration: 109 days, oral, gavage, M, Crl:CD-1 (ICR) BR, generation: P0, P0: Reproductive: Epididymis: Epididymis Weight, Absolute + P0: Reproductive: Epididymis: Epididymis Weight, Relative + P0: Reproductive: …",100 mg/kg-day
same,NOAEL,"reproduction developmental, multiple, M, Crl:CD-1 (ICR) BR, generation: F1, F1: Reproductive: Prepuce: Preputial Separation",100 mg/kg-day
same,LOAEL,[10],5 mg/kg-day
same,NOAEL,[10],1 mg/kg-day
same,LOAEL,[11],100 mg/kg-day
same,NOAEL,[11],25 mg/kg-day
same,NEL,"reproduction developmental, oral, gavage, F, CD1, generation: P0, P0: Blood: Calcium (CA), Blood + P0: Blood: Chloride (CL), Blood + P0: Blood: Globulin (G), Blood + P0: Blood: Glucose (GLU), Blood + P0: …",100 mg/kg-day
same,LEL,[12],100 mg/kg-day
same,NEL,[12],25 mg/kg-day
same,LEL,[13],25 mg/kg-day
same,NEL,[13],5 mg/kg-day
same,NEL,"reproduction developmental, oral, gavage, F, CD1, generation: P0, P0: Uterus: Implantation + P0: Whole Body: Fertility Index + P0: Whole Body: Gestation Index + P0: Whole Body: Male Pups per Pups Sexed + P0…",100 mg/kg-day
same,LOAEL,[14],5 mg/kg-day
same,NOAEL,[14],1 mg/kg-day
same,NEL,"reproduction developmental, oral, gavage, M/F, CD1, generation: F1, F1: Whole Body: Live Pups Born + F1: Whole Body: Viability Index",100 mg/kg-day
same,NEL,"reproduction developmental, oral, gavage, M, CD1, generation: P0, P0: Blood: Calcium (CA), Blood + P0: Blood: Globulin (G) + P0: Blood: Glucose (GLU) + P0: Blood: Inorganic Phosphorous (PHOS) + P0: Blood: …",100 mg/kg-day
same,LEL,[15],100 mg/kg-day
same,NEL,[15],25 mg/kg-day
same,NEL,"reproduction developmental, oral, gavage, M, CD1, generation: P0, P0: Whole Body: Fertility Index + P0: Whole Body: Percent Mating",100 mg/kg-day
[F-].[Na+] [Sodium fluoride],NOEL,"developmental, oral, M, Kunming, generation: F1, F1: activity chamber (ambulation events) + F1: activity chamber (rearing events) + F1: novel object test (adaptation phase memory index) + …",18.4 mg/kg-day
same,LOEL,"developmental, oral, M, NMRI, generation: F1, F1: maze test (completion time, assessment 1) + F1: maze test (completion time, assessment 2)",0.113 mg/day
same,NOEL,"short-term, duration: 28 days, oral, M, BALB/c, activity cage (locomotion events, 10 min) + activity cage (rearing events, 10 min) + activity cage (rearing events, 60 min) + elevated plus …",1.16 mg/kg-day
same,LOEL,[16],0.58 mg/kg-day
same,NOEL,[16],0.23 mg/kg-day
same,LOEL,[17],1.16 mg/kg-day
same,NOEL,[17],0.58 mg/kg-day
same,NOEL,"subchronic, duration: 8 weeks, oral, M, Kunming, Y-maze (% of correct responses 24 hrs after mastering learning standard)",1.16 mg/kg-day
same,LOEL,[18],0.58 mg/kg-day and 0.7 mg/kg-day
same,NOEL,[18],0.12 mg/kg-day and 0.35 mg/kg-day
same,NOEL,"subchronic, duration: 8 weeks, oral, M, Kunming, open field (grid entry, 1 minute) + open field (rearing events) + open field (standing against wall events) + Y-maze (percent correct …",1.39 mg/kg-day
same,LOEL,[19],1.39 mg/kg-day
same,NOEL,[19],0.7 mg/kg-day
same,NOEL,"subchronic, duration: 10 weeks, oral, ICR, Y-maze (% of correct responses 24 hrs after mastering learning standard)",1.19 mg/kg-day
same,LOEL,[20],1.19 mg/kg-day
same,NOEL,[20],0.59 mg/kg-day
same,NOEL,"subchronic, duration: 30 days, oral, F, Swiss Albino, elevated plus maze (time to move from open to closed arm, trial 1) + open field (fecal matter) + open field (grooming time) + open field (…",24.5 mg/kg-day
same,LOEL,"subchronic, duration: 30 days, oral, F, Swiss Albino, elevated plus maze (time to move from open to closed arm, trial 2) + forced swim (immobility time) + motor coordination (akinesia, latency …",12.3 mg/kg-day
same,LOEL,"subchronic, duration: 30 days, oral, F, Swiss Albino, maze test (latency) + motor coordination (akinesia, latency time) + motor coordination (catalepsy, latency time) + swim test (total swim …",14.7 mg/kg-day
same,LOEL,[21],24.5 mg/kg-day
same,NOEL,[21],12.3 mg/kg-day
same,LOEL,"subchronic, duration: 64 days, oral, M, C57BL/6, Von Frey hairs test (relative frequency of paw withdrawal)",5.79 mg/kg-day
same,LOEL,[22],11.6 mg/kg-day
same,NOEL,[22],5.79 mg/kg-day
same,NOEL,"subchronic, duration: 64 days, oral, M, C57BL/6, formalin test (licking time, late phase, 60 min) + formalin test (licking time/10 min, 60 min) + open field (total distance moved, 1 hr) + …",11.6 mg/kg-day
